Test results published in ChEMBL document CHEMBL4033623, “Synthesis of xanthone derivatives and studies on the inhibition against cancer cells growth and synergistic combinations of them” (Eur J Med Chem, 2017).
The source made the active and inactive calls. The calls are words filed in the database; no cut-off is given here.

Legend:
MDA-MB-231 [1] = experiment: Synergistic increase in p53 level in human MDA-MB-231 cells at 0.1 to 0.5 uM after 48 hrs in presence of DMXAA by Western blot analysis; assay type: functional, cell-based
MDA-MB-231 [2] = experiment: Synergistic induction of apoptosis in human MDA-MB-231 cells assessed as early apoptotic cells at 0.8 uM after 48 hrs in presence of DMXAA by Annexin-V/FITC/PI staining based flow cytometry (reference value: 0.05 %); assay type: functional
MDA-MB-231 [3] = experiment: Synergistic induction of apoptosis in human MDA-MB-231 cells assessed as early apoptotic cells at 0.4 uM after 48 hrs in presence of DMXAA by Annexin-V/FITC/PI staining based flow cytometry (reference value: 0.05 %); assay type: functional
MDA-MB-231 [4] = experiment: Induction of apoptosis in human MDA-MB-231 cells assessed as late apoptotic cells at 0.4 uM after 48 hrs by Annexin-V/FITC/PI staining based flow cytometry (reference value: 1.50 %); assay type: functional
HepG2 [5] = experiment: Synergistic antiproliferative activity against human HepG2 cells at compound to DMXAA mol ratio of 1:1 after 48 hrs by CCK8 assay; assay type: functional, cell-based; conditions: HepG2, 48 h
MCF7 = experiment: Antiproliferative activity against human MCF7 cells after 48 hrs by CCK8 assay; assay type: functional, cell-based; conditions: MCF7, 48 h
MDA-MB-231 [6] = experiment: Synergistic induction of apoptosis in human MDA-MB-231 cells assessed as viable cells at 0.8 uM after 48 hrs in presence of DMXAA by Annexin-V/FITC/PI staining based flow cytometry (reference value: 99.95 %); assay type: functional; conditions: MDA-MB-231, 48 h, read-out: Activity
COLO 320 = experiment: Antiproliferative activity against human COLO320 cells after 48 hrs by CCK8 assay; assay type: functional, cell-based; conditions: COLO 320, 48 h
MDA-MB-231 [7] = experiment: Decrease in caspase-9 level in human MDA-MB-231 cells at 0.2 to 0.8 uM after 48 hrs by Western blot analysis; assay type: functional, cell-based
MDA-MB-231 [8] = experiment: Induction of apoptosis in human MDA-MB-231 cells after 48 hrs in presence of DMXAA by Annexin-V/FITC/PI staining based flow cytometry; assay type: functional, cell-based
MDA-MB-231 [9] = experiment: Synergistic induction of apoptosis in human MDA-MB-231 cells assessed as necrotic cells at 0.8 uM after 48 hrs in presence of DMXAA by Annexin-V/FITC/PI staining based flow cytometry (reference value: 0.00 %); assay type: functional
MDA-MB-231 [10] = experiment: Decrease in caspase-3 level in human MDA-MB-231 cells at 0.2 to 0.8 uM after 48 hrs by Western blot analysis; assay type: functional, cell-based
MDA-MB-231 [11] = experiment: Synergistic induction of apoptosis in human MDA-MB-231 cells assessed as decrease in caspase-3 level at 0.1 to 0.5 uM after 48 hrs in presence of DMXAA by Western blot analysis; assay type: functional, cell-based
K562 = experiment: Synergistic antiproliferative activity against human K562 cells at compound to DMXAA mol ratio of 1:1 after 48 hrs by CCK8 assay; assay type: functional, cell-based; conditions: K562, 48 h
MDA-MB-231 [12] = experiment: Induction of apoptosis in human MDA-MB-231 cells assessed as late apoptotic cells at 0.2 uM after 48 hrs by Annexin-V/FITC/PI staining based flow cytometry (reference value: 1.50 %); assay type: functional
MDA-MB-231 [13] = experiment: Antiproliferative activity against human MDA-MB-231 cells after 48 hrs by CCK8 assay; assay type: functional, cell-based; conditions: MDA-MB-231, 48 h
MDA-MB-231 [14] = experiment: Induction of apoptosis in human MDA-MB-231 cells assessed as early apoptotic cells at 0.8 uM after 48 hrs by Annexin-V/FITC/PI staining based flow cytometry (reference value: […] %); assay type: functional
MDA-MB-231 [15] = experiment: Synergistic induction of apoptosis in human MDA-MB-231 cells assessed as late apoptotic cells at 0.2 uM after 48 hrs in presence of DMXAA by Annexin-V/FITC/PI staining based flow cytometry (reference value: 0.00 %); assay type: functional
MDA-MB-231 [16] = experiment: Induction of apoptosis in human MDA-MB-231 cells assessed as viable cells at 0.2 uM after 48 hrs by Annexin-V/FITC/PI staining based flow cytometry (reference value: 96.51 %); assay type: functional; conditions: MDA-MB-231, 48 h, read-out: Activity
HepG2 [17] = experiment: Antiproliferative activity against human HepG2 cells after 48 hrs by CCK8 assay; assay type: functional, cell-based; conditions: HepG2, 48 h
MDA-MB-231 [18] = experiment: Induction of apoptosis in human MDA-MB-231 cells assessed as viable cells at 0.8 uM after 48 hrs by Annexin-V/FITC/PI staining based flow cytometry (reference value: 96.51 %); assay type: functional; conditions: MDA-MB-231, 48 h, read-out: Activity

- IC50 (HepG2 [5]): 7.21 µM
- IC50 (MCF7): 3.4 µM
- IC50 (COLO 320): 10.5 µM
- IC50 (K562): 10.2 µM
- IC50 (MDA-MB-231 [13]): 0.46 µM
- IC50 (HepG2 [17]): 9.2 µM
Structure (SMILES): O=c1c2cc(Br)ccc2oc2cc(O)cc(O)c12
- Activity (MDA-MB-231 [1]): Active
- Activity (MDA-MB-231 [2]): 6.81%
- Activity (MDA-MB-231 [3]): 4.7%
- Activity (MDA-MB-231 [4]): 11.53%
- viability at 0.8 µM (MDA-MB-231 [6]): 41.1%
- Activity (MDA-MB-231 [7]): Active
- Activity (MDA-MB-231 [8]): Dose-dependent effect
- Activity (MDA-MB-231 [9]): 17.47%
- Activity (MDA-MB-231 [10]): Active
- Activity (MDA-MB-231 [11]): Active
- Activity (MDA-MB-231 [12]): 5.35%
- Activity (MDA-MB-231 [14]): 2.21%
- Activity (MDA-MB-231 [15]): 10.2%
- viability at 0.2 µM (MDA-MB-231 [16]): 79.2%
- viability at 0.8 µM (MDA-MB-231 [18]): 39.1%
